In PMC10529643, “Discovery of ACE Inhibitory Peptides Derived from Green Coffee Using In Silico and In Vitro Methods” (Foods, 2023):
Read-outs that look alike come from different tables or passages of the source. Blank lines part the entries; values can stand above or below the molecule they belong to. Ends that are not written are not given here.

Key:
ACE = settings: cited from earlier work
[1] = tested on: Angiotensin converting enzyme (ACE); test: In vitro ACE inhibitory activity assay with FAPGG substrate; type: biochemical; settings: captopril at 0.1 μM, 37 °C, 30 min, absorbance 340 nm
Experimental: The peptides predicted with potential antihypertensive capacity were synthesized by GenScript. The ACE inhibitory capacity of hydrolysates and selected peptides were measured as previously described with minor modifications; 400 μL of samples (hydrolysates, synthesized peptides dissolved in the HEPES-NaCl buffer at a concentration of 1.25 mg/mL, 125 μM separately) were mixed with 100 μL of ACE (0.2 U/mL). After incubation of the mixture at 37 °C for 10 min, 500 μL of FAPGG was added and the absorbance value at 340 nm was detected instantly by a FlexStation 3 and recorded as A0 min. After being kept at 37 °C for 30 min, the absorbance value at 340 nm was detected again and recorded: ACE inhibitory rate%=∆Acontrol−∆Asample/∆Acontrol×100% where A0 min is the initial absorbance at 340 nm; A30 min is the absorbance at 340 nm after keeping at 37 °C for 30 min, and ΔA is the reduction in the absorbance: A0 min–A30 min.

pepsin = test: In vitro gastrointestinal digestion simulation, pepsin step, MS analysis; type: in vitro ADME; settings: 1.0 mg/mL peptide, pepsin 1% E/S w/w, pH 2.0, 37 °C, 2 h; Q-TOF MS read-out
Experimental: (§1) In vitro gastrointestinal digestion simulation was performed according to the method described by Fan et al. with minor modifications. Two peptides (CP2, CP3) were dissolved in ultrapure water at 1.0 mg/mL, respectively. The solutions were adjusted to pH 2.0 with […]. Then, pepsin (1% E/S, w/w) was added to peptide solutions and the mixtures were incubated at 37 °C for 2 h. Half of the two digests were terminated in digestion by increasing the temperature to 90 °C. After the other half were adjusted to pH 7.5 with […], pancreatin (1% E/S, w/w) was added and the systems were digested at 37 °C for 2 h. The reactions were then stopped by boiling for 10 min. Subsequently, solvents were centrifuged at 10,000 rpm for 10 min. The supernatants were lyophilized to collect and analyzed using Agilent 6545 series Q-TOF mass spectrometer (Agilent, Waldbronn, Germany). The ACE inhibitory activity of the digested peptide solutions was determined under the same conditions.

pepsin-pancreatin = test: In vitro gastrointestinal digestion simulation, pepsin then pancreatin, MS analysis; type: in vitro ADME; settings: pepsin pH 2.0, 37 °C, 2 h then pancreatin 1% E/S w/w, pH 7.5, 37 °C, Q-TOF MS read-out
Experimental: as §1

Molecule: VFDGVLRPGQ
ACE inhibition pattern (ACE; from rice bran protein): noncompetitive

ACE inhibition (%) [1]: 97.5%
Molecule: C[C@H](CS)C(=O)N1CCC[C@H]1C(=O)O [Captopril, captopril]

stability against pepsin digestion (pepsin): Only a small amount of CP3 was degraded | stability against successive pepsin and pancreatin digestion (pepsin-pancreatin): Great changes in the MS analysis
Molecule: ITPPVMLPP [CP3]

stability against pepsin digestion (pepsin): well resistant in gastric digestion | stability against successive pepsin and pancreatin digestion (pepsin-pancreatin): new peptide sequences were detected
Molecule: IIPNEVY [CP2]

Molecule: VGLPPNSR
ACE inhibition pattern (ACE; from tilapia skin gelatin): noncompetitive

Molecule: QLDL
ACE inhibition pattern (ACE; from the mycelia of Ganoderma Lucidum): noncompetitive

Molecule: QAGLSPVR
ACE inhibition pattern (ACE; from tilapia skin gelatin): noncompetitive
